In the test the target is SARS-CoV-2 3CLpro (Severe acute respiratory syndrome coronavirus 2, UniProt P0DTD1). The experiment in a line: biochemical. The conditions noted are these: for mean (LOPAC screen with protease) / Replicate_1 (LOPAC screen with protease) / Replicate_2 (LOPAC screen with protease): primary screen at 5 µM; for inhibition at 5 µM: 4 h. The test is classed as biochemical. Details: Replicate_1 / Replicate_2 / mean / mean (LOPAC_screen_w_protease): unit not given here.

Where [1] appears, read: sheet LOPAC_screen_w_protease, mean of two replicates.
[2] abbreviates: sheet LOPAC_screen_w_protease, replicate 1.
The mark [3] stands for this setting: sheet LOPAC_screen_w_protease, replicate 2.
Setting [4] is: read-out: Replicate_1 (LOPAC_screen_w_protease).
The mark [5] stands for this setting: read-out: Replicate_2 (LOPAC_screen_w_protease).
Setting [6] is: sheet LOPAC_screen_w_protease, primary screen of LOPAC1280 at 5 µM with protease, mean of the two replicates, read-out: mean.
Where [7] appears, read: sheet LOPAC_screen_w_protease, primary screen of LOPAC1280 at 5 µM with protease, replicate 1, read-out: Replicate_1.
[8] abbreviates: sheet LOPAC_screen_w_protease, primary screen of LOPAC1280 at 5 µM with protease, replicate 2, read-out: Replicate_2.
Where [9] appears, read: sheet LOPAC_screen_w_protease, LOPAC1280 primary screen at 5 µM, with protease, mean of the two replicates.
Where [10] appears, read: sheet LOPAC_screen_w_protease, LOPAC1280 primary screen at 5 µM, with protease, replicate 1.
[11] abbreviates: sheet LOPAC_screen_w_protease, LOPAC1280 primary screen at 5 µM, with protease, replicate 2.
Setting [12] is: LOPAC1280 primary screen with protease, 5 µM compound, replicate 1, read-out: Replicate_1 (LOPAC_screen_w_protease).
The mark [13] stands for this setting: LOPAC1280 primary screen with protease, 5 µM compound, replicate 2, read-out: Replicate_2 (LOPAC_screen_w_protease).
Setting [14] is: LOPAC1280 primary screen with protease, 5 µM compound, mean of two replicates.
Setting [15] is: LOPAC1280 primary screen with protease, 5 µM compound, mean of the two replicates.
Where [16] appears, read: LOPAC1280 primary screen with protease, 5 µM compound, replicate 1.
[17] abbreviates: LOPAC1280 primary screen with protease, 5 µM compound, replicate 2.
Setting [18] is: sheet LOPAC_screen_w_protease, LOPAC1280 primary screen with protease, 5 µM compound, mean of the two replicates.
The mark [19] stands for this setting: sheet LOPAC_screen_w_protease, LOPAC1280 primary screen with protease, 5 µM compound, replicate 1.
Setting [20] is: sheet LOPAC_screen_w_protease, LOPAC1280 primary screen with protease, 5 µM compound, replicate 2.
The mark [21] stands for this setting: sheet LOPAC_screen_w_protease, primary screen with protease, mean of two replicates.
[22] abbreviates: sheet LOPAC_screen_w_protease, primary screen with protease, replicate 1.
Where [23] appears, read: sheet LOPAC_screen_w_protease, primary screen with protease, replicate 2.
The mark [24] stands for this setting: sheet LOPAC_screen_w_protease, primary screen with protease, compound at 5 µM, mean of two replicates.
The mark [25] stands for this setting: sheet LOPAC_screen_w_protease, primary screen with protease, compound at 5 µM, replicate 1.
Setting [26] is: sheet LOPAC_screen_w_protease, primary screen with protease, compound at 5 µM, replicate 2.

The structures appear in SMILES notation. Where a name gives a salt, the structure may show the parent alone. Read-outs that look alike come from different tables or passages of the source.

As to `Br.CN1CCc2c(cc(O)c(O)c2Cl)C(c2cccc(Cl)c2)C1` (stereo not drawn) [SKF 83565 hydrobromide], the “mean (LOPAC screen with protease)” value under setting [1] is listed as 22.1474. The “Replicate_1 (LOPAC screen with protease)” value under setting [2] stood at 23.5852. Also, the “Replicate_2 (LOPAC screen with protease)” value under setting [3] is reported as 20.7095.

As for `NC(=O)N1c2ccccc2C=Cc2ccccc21` [Carbamazepine], the “mean (LOPAC_screen_w_protease)” value turned out to be 1.395. The inhibition at 5 µM under setting [4] came out at 1.4%. Besides, under setting [5], the inhibition at 5 µM was 1.39%.

Consider `O=C1NC(c2cccc([N+](=O)[O-])c2)=CCN1c1ccccc1O` [Icilin], for which the inhibition at 5 µM runs as follows: under setting [6], 3.88%; under setting [7], 4.52%; under setting [8], 3.25%.

Compound `N[C@@H](Cn1oc(=O)[nH]c1=O)C(=O)O` [(+)-Quisqualic acid] came in with a mean under setting [9] of 0.4364. The Replicate_1 under setting [10] turned out to be 1.4914. Further, the Replicate_2 under setting [11] was -0.6187.

For the compound `COc1cc(OC)c(C=C2C(O)=Nc3ccccc32)c(OC)c1` [IC 261], the inhibition at 5 µM under setting [12] is 1.63% and the inhibition at 5 µM under setting [13] was determined as 1.3%. Moreover, the “mean (LOPAC_screen_w_protease)” value under setting [14] is 1.465.

`O=c1[nH]c2ccccc2n1C1CCN(CCCC(c2ccc(F)cc2)c2ccc(F)cc2)CC1` [Pimozide]: the inhibition at 5 µM is, setting by setting: (sheet LOPAC_screen_w_protease, primary screen with protease, compound at 5 µM, mean of two replicates, read-out: mean) 2.77%; (sheet LOPAC_screen_w_protease, primary screen with protease, compound at 5 µM, replicate 1, read-out: Replicate_1) 3.25%; (sheet LOPAC_screen_w_protease, primary screen with protease, compound at 5 µM, replicate 2, read-out: Replicate_2) 2.29%.

With `CCc1cc(Cl)c(O)c(C(=O)NC[C@@H]2CCCN2CC)c1OC.Cl` [S-(-)-Eticlopride hydrochloride], the “mean (LOPAC_screen_w_protease)” value under setting [15] is listed as 2.005. Under setting [16], the “Replicate_1 (LOPAC_screen_w_protease)” value worked out at 2.376. Further, the “Replicate_2 (LOPAC_screen_w_protease)” value under setting [17] was 1.635.

Under setting [18], `COc1cc(C(O)CN)ccc1O.Cl` (racemic) [(±)-Normetanephrine hydrochloride] showed a mean of 4.101. This compound displayed a Replicate_1 under setting [19] of 4.337. Under setting [20], this compound returned a Replicate_2 of 3.864.

Regarding `S=C=Nc1cccc(C2(N3CCCCC3)CCCCC2)c1` [Metaphit methanesulfonate], the inhibition at 5 µM by setting is: (sheet LOPAC_screen_w_protease, LOPAC1280 primary screen with protease, 5 µM compound, mean of the two replicates, read-out: mean) 5.96%; (sheet LOPAC_screen_w_protease, LOPAC1280 primary screen with protease, 5 µM compound, replicate 1, read-out: Replicate_1) 6.38%; (sheet LOPAC_screen_w_protease, LOPAC1280 primary screen with protease, 5 µM compound, replicate 2, read-out: Replicate_2) 5.54%.

Consider `CC(C)N(CCC(=O)c1ccc2ccccc2c1)Cc1ccccc1.Cl` [ZM 39923 hydrochloride], for which, under setting [1], the “mean (LOPAC screen with protease)” value came to 93.4745. Besides, the “Replicate_1 (LOPAC screen with protease)” value under setting [2] amounted to 92.2854. Further, the “Replicate_2 (LOPAC screen with protease)” value under setting [3] is given as 94.6636.

For `CN1C[C@H](CNC(=O)OCc2ccccc2)C[C@@H]2c3cccc4c3c(cn4C)C[C@H]21` [Metergoline], the inhibition at 5 µM by setting is: under setting [6], 4.08%; under setting [7], 2.56%; under setting [8], 5.6%.

The compound `CCCCC1(C2CCCC2)Cc2cc(OCC(=O)O)c(Cl)c(Cl)c2C1=O` (stereo in doubt) [R(+)-Butylindazone] came in with a mean under setting [21] of 2.217. Also, the Replicate_1 under setting [22] came out at 3.715. Under setting [23], this compound yielded a Replicate_2 of 0.7192.

Consider `OC[C@H]1O[C@@H](n2cnc3c(NCCc4ccccc4)ncnc32)[C@H](O)[C@@H]1O` [N6-2-Phenylethyladenosine], for which the mean under setting [9] is given as 0.6761. Further, the Replicate_1 under setting [10] is reported as 1.884. Moreover, the Replicate_2 under setting [11] is reported as -0.5317.

`O=c1onc2cnc3ccccc3n12` [ODQ] yielded a mean under setting [24] of 2.809. The Replicate_1 under setting [25] stood at 2.693. For the same compound, the Replicate_2 under setting [26] came to 2.926.

In the case of `Nc1ccncc1` [4-Aminopyridine], the inhibition at 5 µM reads like this: (sheet LOPAC_screen_w_protease, primary screen with protease, 5 µM, mean of two replicates, read-out: mean) -0.189%; (sheet LOPAC_screen_w_protease, primary screen with protease, 5 µM, replicate 1, read-out: Replicate_1) 0.392%; (sheet LOPAC_screen_w_protease, primary screen with protease, 5 µM, replicate 2, read-out: Replicate_2) -0.771%.

As to `CCC(=O)N1CCN(C(=O)c2ccccc2)CC1` [DM 235], the “mean (LOPAC_screen_w_protease)” value under setting [14] worked out at 1.365. Also, the “Replicate_1 (LOPAC_screen_w_protease)” value under setting [16] was found to be 0.6823. The “Replicate_2 (LOPAC_screen_w_protease)” value under setting [17] amounted to 2.048.

For the compound `O=P1(N(CCCl)CCCl)NCCCO1` (stereo not drawn) [Cyclophosphamide monohydrate], the inhibition at 5 µM is, setting by setting: (read-out: Replicate_1) -1.54%; (read-out: Replicate_2) 3.01%; (read-out: mean) 0.736%.

In turn, `O=c1[nH]c2ccccc2c2ccccc12` [6(5H)-Phenanthridinone] came in with a mean under setting [21] of 2.579. Moreover, the Replicate_1 under setting [22] is listed as 3.064. For the same compound, under setting [23], the Replicate_2 is 2.0946.

For `NCCCCN` [Putrescine dihydrochloride], the “mean (LOPAC_screen_w_protease)” value amounted to 2.055. Further, under setting [4], the inhibition at 5 µM is 4.37%. Besides, the inhibition at 5 µM under setting [5] is -0.258%.

With `N.N.O=C([O-])C1(C(=O)[O-])CCC1.[Pt+2]` [Carboplatin], the mean under setting [24] amounted to 2.889. Also, the Replicate_1 under setting [25] is reported as 1.772. Also, the Replicate_2 under setting [26] is recorded as 4.006.

Turning to `O=P(O)(O)C(Cl)(Cl)P(=O)(O)O` [Clodronic acid], the inhibition at 5 µM is, setting by setting: under setting [12], 2.04%; under setting [13], 1.36%. The “mean (LOPAC_screen_w_protease)” value under setting [14] was 1.697.

Regarding `NC/C=C/C(=O)O` [(E)-4-amino-2-butenoic acid], under setting [14], the “mean (LOPAC_screen_w_protease)” value was 1.558. Besides, the “Replicate_1 (LOPAC_screen_w_protease)” value under setting [16] was 1.878. Moreover, under setting [17], the “Replicate_2 (LOPAC_screen_w_protease)” value came out at 1.238.

`CCCOC(=O)c1c(-c2ccccc2)nc(CC)c(C(=O)SCC)c1CCC` [MRS 1523] came in with a mean under setting [24] of 2.972. The compound also had a Replicate_1 under setting [25] of 3.943. Under setting [26], this compound yielded a Replicate_2 of 2.002.

As to `CNC(=O)[C@H]1O[C@@H](n2cnc3c(NCc4cccc(I)c4)ncnc32)[C@H](O)[C@@H]1O` [IB-MECA], the inhibition at 5 µM by setting is: (sheet LOPAC_screen_w_protease, primary screen with protease, mean of two replicates, read-out: mean) 2.39%; (sheet LOPAC_screen_w_protease, primary screen with protease, replicate 1, read-out: Replicate_1) 2.72%; (sheet LOPAC_screen_w_protease, primary screen with protease, replicate 2, read-out: Replicate_2) 2.06%.

The compound `N[C@@H](Cc1ccc(O)c(O)c1)C(=O)O` [L-3,4-Dihydroxyphenylalanine] registered a mean under setting [18] of 4.21. Also, under setting [19], the Replicate_1 is 5.679. Under setting [20], the Replicate_2 is reported as 2.742.

Turning to `Cl.Clc1ccc(Cn2c(CN3CCCC3)nc3ccccc32)cc1` [Clemizole hydrochloride], the mean under setting [24] was 3.083. For the same compound, the Replicate_1 under setting [25] worked out at 2.873. The compound also returned a Replicate_2 under setting [26] of 3.2929.

As for `CCC1(c2ccc(N)cc2)CCC(=O)NC1=O` (racemic) [(±)-p-Aminoglutethimide], the mean under setting [21] stood at 2.443. Further, the Replicate_1 under setting [22] stood at 1.25. The Replicate_2 under setting [23] is reported as 3.637.

The compound `CN1CCc2cc(Cl)c(O)cc2[C@@H](c2ccccc2)C1.Cl` [R(+)-SCH-23390 hydrochloride] registered a mean (sheet LOPAC_screen_w_protease, primary screen of LOPAC1280 at 5 µM with protease, mean of the two replicates) of 3.494. The compound also came in with a Replicate_1 (sheet LOPAC_screen_w_protease, primary screen of LOPAC1280 at 5 µM with protease, replicate 1) of 4.714. Under “sheet LOPAC_screen_w_protease, primary screen of LOPAC1280 at 5 µM with protease, replicate 2”, the Replicate_2 amounted to 2.274.

For `COC[C@H]1OC(=O)c2coc3c2[C@@]1(C)C1=C(C3=O)[C@@H]2CCC(=O)[C@@]2(C)C[C@H]1OC(C)=O` [Wortmannin from Penicillium funiculosum], the mean under setting [21] was determined as 2.471. Under setting [22], this compound returned a Replicate_1 of 2.1754. Besides, under setting [23], the Replicate_2 is reported as 2.767.

Take `N[C@@H](Cc1ccc(F)cc1)C(=O)O` [p-Fluoro-L-phenylalanine]: under setting [15], the “mean (LOPAC_screen_w_protease)” value is listed as 2.051. Moreover, under setting [16], the “Replicate_1 (LOPAC_screen_w_protease)” value stood at 4.147. In addition, under setting [17], the “Replicate_2 (LOPAC_screen_w_protease)” value is given as -0.04537.

`CCN1CCC[C@H]1CNC(=O)c1c(OC)ccc(I)c1O` [S(-)-IBZM] came in with a mean under setting [21] of 2.422. Besides, under setting [22], the Replicate_1 is 3.86. The compound further had a Replicate_2 under setting [23] of 0.9843.

The values are drawn from article PMC7587356, “High-Throughput Screening for Inhibitors of the SARS-CoV-2 Protease Using a FRET-Biosensor” (Molecules, 2020).
